# Laboratory results reported in publication PMC6376178 (Theranostics, 2019).
# Target: T1, USP5 (ubiquitin-specific protease 5) (Homo sapiens, UniProt P45974)
# T1 sequence (P45974 2-858): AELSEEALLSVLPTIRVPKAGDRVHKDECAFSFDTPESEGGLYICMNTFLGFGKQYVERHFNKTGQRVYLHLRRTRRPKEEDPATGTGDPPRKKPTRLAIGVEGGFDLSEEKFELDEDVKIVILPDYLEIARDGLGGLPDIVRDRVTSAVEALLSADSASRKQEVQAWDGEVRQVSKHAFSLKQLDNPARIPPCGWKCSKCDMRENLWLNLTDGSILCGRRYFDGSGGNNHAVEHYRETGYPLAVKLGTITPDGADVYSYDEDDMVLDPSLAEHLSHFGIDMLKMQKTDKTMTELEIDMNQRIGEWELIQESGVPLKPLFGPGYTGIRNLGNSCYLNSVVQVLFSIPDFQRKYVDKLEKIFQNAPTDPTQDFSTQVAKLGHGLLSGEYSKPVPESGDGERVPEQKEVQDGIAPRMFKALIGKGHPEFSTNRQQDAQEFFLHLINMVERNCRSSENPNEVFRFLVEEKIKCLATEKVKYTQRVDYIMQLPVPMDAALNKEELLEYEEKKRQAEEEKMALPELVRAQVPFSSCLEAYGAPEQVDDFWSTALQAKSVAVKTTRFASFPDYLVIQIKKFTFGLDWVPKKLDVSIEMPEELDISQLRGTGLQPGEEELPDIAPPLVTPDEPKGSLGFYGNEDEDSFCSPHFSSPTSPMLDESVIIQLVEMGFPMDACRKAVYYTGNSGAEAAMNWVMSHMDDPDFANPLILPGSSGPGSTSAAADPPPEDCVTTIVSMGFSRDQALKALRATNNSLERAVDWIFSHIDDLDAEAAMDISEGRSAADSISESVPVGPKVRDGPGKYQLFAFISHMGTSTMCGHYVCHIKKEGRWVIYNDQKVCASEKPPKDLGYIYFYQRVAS
# Experiment: SPR
# Format: binding
structure (smiles),measurement,value
COc1ccc(-c2coc3cc(O)ccc3c2=O)cc1 [Formononetin],Kd,25.1 µM
